Assay results: the supplement of paper PMC10307832

Columns and labels:
Experiment in all cases: relative viability (nuclei count vs DMSO), 5 days (fraction); higher = more cells survive
[1] = compound: C1=CC=C2C(=C1)N=C(S2)C(C#N)C3=NC(=NC=C3)NCCC4=CN=CC=C4 + CS(=O)(=O)N1CCN(Cc2cc3nc(-c4cccc5[nH]ncc45)nc(N4CCOCC4)c3s2)CC1 [Pictilisib] (partner 1 µM)
In short: (§1)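 Dosing by pin tool came one day after lung cancer cell lines were seeded in 1536-well plates, using either one drug or a fixed anchor-drug dose plus five library-drug doses (not always all listed) in √10 steps. After 5 days, nuclei were counted on 4× images. Relative viability is treated-well nuclei count divided by vehicle-well nuclei count, and values are medians of duplicate plates.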

[2] = compound: C1=CC=C2C(=C1)N=C(S2)C(C#N)C3=NC(=NC=C3)NCCC4=CN=CC=C4 + C[C@@H](Oc1cc(-c2cnn(C3CCNCC3)c2)cnc1N)c1c(Cl)ccc(F)c1Cl [Crizotinib] (partner 1 µM)
In short: as §1

[3] = compound: C#Cc1cccc(Nc2ncnc3cc(OC)c(OCCCCCCC(=O)NO)cc23)c1 [CUDC-101] + COc1cccc2cc(-c3nc([C@H]4CC[C@H](C(=O)O)CC4)n4ncnc(N)c34)[nH]c12 [OSI-027] (partner 0.5 µM)
In short: as §1

[4] = compound: COc1cc2/c(=N/c3ccc(Br)cc3F)nc[nH]c2cc1OCC1CCN(C)CC1 [Vandetanib] + CC(C)C[C@H](NC(=O)[C@H](Cc1ccccc1)NC(=O)c1cnccn1)B(O)O [Bortezomib] (partner 0.002 µM)
In short: as §1

Row | Cell Line | relative viability ([1]; first compound 0.005 µM) | relative viability ([1]; first compound 0.01581 µM) | relative viability ([1]; first compound 0.05 µM) | relative viability ([1]; first compound 0.1581 µM) | relative viability ([1]; first compound 0.5 µM) | relative viability ([2]; first compound 0.005 µM) | relative viability ([2]; first compound 0.01581 µM) | relative viability ([2]; first compound 0.05 µM) | relative viability ([2]; first compound 0.1581 µM) | relative viability ([2]; first compound 0.5 µM) | relative viability ([3]; first compound 0.01 µM) | relative viability ([3]; first compound 0.03162 µM) | relative viability ([3]; first compound 0.1 µM) | relative viability ([3]; first compound 0.3162 µM) | relative viability ([3]; first compound 1 µM) | relative viability ([4]; first compound 0.02 µM) | relative viability ([4]; first compound 0.06325 µM) | relative viability ([4]; first compound 0.2 µM) | relative viability ([4]; first compound 0.6325 µM) | relative viability ([4]; first compound 2 µM)
1 | LOU-NH91 | 0.51 | 0.515 | 0.477 | 0.533 | 0.489 | 0.709 | 0.786 | 0.689 | 0.695 | 0.685 | 0.753 | 0.633 | 0.523 | 0.514 | 0.443 | 0.514 | 0.47 | 0.535 | 0.504 | 0.504
2 | LU99A | 0.281 | 0.354 | 0.336 | 0.394 | 0.338 | 0.457 | 0.686 | 0.599 | 0.599 | 0.51 | 0.297 | 0.305 | 0.302 | 0.289 | 0.239 | 1.14 | 1.22 | 1.11 | 1.07 | 1.07
3 | LXF-289 | 0.705 | 0.922 | 0.893 | 0.899 | 0.676 | 0.761 | 0.798 | 0.831 | 0.869 | 0.798 | 0.751 | 0.885 | 0.766 | 0.918 | 0.57 | 0.999 | 0.895 | 0.932 | 1.04 | 0.986
4 | NCI-H23 | – | 0.464 | 0.455 | 0.508 | 0.511 | – | 0.602 | 0.433 | 0.544 | 0.35 | 0.71 | 0.647 | 0.631 | 0.607 | 0.509 | 1 | 0.944 | 1.06 | 0.785 | 0.884
5 | NCI-H322M | 0.482 | 0.477 | 0.492 | 0.552 | 0.486 | 0.845 | 0.85 | 0.953 | 0.891 | 0.796 | 0.679 | 0.555 | 0.518 | 0.417 | 0.308 | 1.18 | 1.13 | 1.18 | 1.13 | 1.12
6 | NCI-H441 | – | 0.458 | 0.549 | 0.55 | 0.494 | – | 0.486 | 0.691 | 0.834 | 0.554 | 0.622 | 0.625 | 0.621 | 0.803 | 0.399 | 0.449 | 0.459 | 0.373 | 0.547 | 0.386
7 | NCI-H460 | 0.355 | 0.306 | 0.358 | 0.506 | 0.353 | – | 0.908 | 0.71 | 0.873 | 0.902 | 0.701 | 0.62 | 0.734 | 0.762 | 0.555 | 1.02 | 0.992 | 1.1 | 1.09 | 0.98
8 | NCI-H520 | 0.178 | 0.328 | 0.307 | 0.362 | 0.256 | 0.564 | 0.856 | 0.947 | 0.882 | 0.569 | 0.218 | 0.281 | 0.327 | 0.256 | 0.191 | 0.608 | 0.623 | 0.527 | 0.45 | 0.569
